Reference: US20240216342A1, “BLOOD CARNITINE-INCREASING AGENT” (KOWA COMPANY, LTD., priority 2021, published 2024)

What was measured:
Format in all cases: in vivo, human
[1] = Blood free carnitine in a fasting state, compound A given orally to dyslipidemia patients for 4 weeks (Example 1); conditions: for Ratio of change in free carnitine after administration for 4 weeks with respect to value before administration (at 0 weeks): fasting state, oral
Method: A study was conducted on an action on blood carnitine in oral administration of the compound A to a dyslipidemia patient at 0.2 to 0.8 mg a day for 4 weeks. For the administration of the compound A, an IR preparation (0.2 mg/day, twice a day), 0.4 mg of a CR preparation (once a day) and 0.8 mg of a CR preparation (once a day) were used, and the administration was performed before or after a meal. Table 1 and FIG. 1 show a ratio of change in concentration of free carnitine in blood in a fasting state in administration of the compound A to the dyslipidemia patient for 4 weeks with respect to the value before administration (at 0 weeks) in Example 1.

[2] = Blood free carnitine after meal (high-fat food) versus before meal, compound A given to dyslipidemia patients for 4 weeks (Example 1)
Method: A study was conducted on an action on blood carnitine in oral administration of the compound A to a dyslipidemia patient at 0.2 to 0.8 mg a day for 4 weeks. For the administration of the compound A, an IR preparation (0.2 mg/day, twice a day), 0.4 mg of a CR preparation (once a day) and 0.8 mg of a CR preparation (once a day) were used, and the administration was performed before or after a meal. Table 2 and FIG. 2 show a process of an amount of change in free carnitine in blood after meal (after intake of high-fat food) with respect to a value before meal in administration of the compound A to the dyslipidemia patient for 4 weeks in Example 1.

[3] = Blood free carnitine in a fasting state, compound A given orally to NAFLD patients for 48 weeks versus placebo (Example 2); conditions: IR 0.4 mg/day
Method: A study was conducted on an action on blood carnitine in oral administration of the compound A to a non-alcoholic fatty liver disease (NAFLD) patient at 0.4 mg a day for 48 weeks. For the administration of the compound A, an IR preparation (0.4 mg/day, twice a day) was used, and the administration was performed in a fasting state. A comparison was made with placebo administration. Table 3 and FIG. 3 show a process of a ratio of change in concentration of free carnitine in blood in a fasting state in administration of the compound A (IR 0.4 mg/day) to the NAFLD patient for 48 weeks with respect to the value before administration (at 0 weeks) in Example 2.

With `CC[C@@H](Oc1cccc(CN(CCCOc2ccc(OC)cc2)c2nc3ccccc3o2)c1)C(=O)O` [Compound A, (R)-2-[3-[[N-(benzoxazol-2-yl)-N-3-(4-methoxyphenoxy)propyl]aminomethyl]phenoxy]butyric acid] the “Effect on concentration of free carnitine in blood in a fasting state (in words)” value ([1]; 0.2 to 0.8 mg a day) was “increased the concentration of free carnitine in blood in a dose-dependent manner”, the “Ratio of change in free carnitine after administration for 4 weeks with respect to value before administration (at 0 weeks)” value (shortened to “Ratio of change in free carnitine”) ([1]; CR preparation 0.4 mg/day) was 19.5 and the “Ratio of change in free carnitine” value ([1]; CR preparation 0.8 mg/day) was 23.71. The “Ratio of change in free carnitine” value ([1]; IR preparation 0.2 mg/day) was 11.82, the “Effect on concentration of free carnitine in blood after meal compared to before meal (in words)” value ([2]; 0.2 to 0.8 mg a day, 4 weeks) was “increased the concentration of free carnitine in blood after meal as compared to the concentration before meal” and the “Amount of change in free carnitine in blood after meal with respect to value before meal, average” value (shortened to “Amount of change in free carnitine”) ([2]; CR 0.4 mg/day (QD) for 4 weeks, 1 h after high-fat meal) was 2.78 µmol/L. The “Amount of change in free carnitine” value ([2]; CR 0.4 mg/day (QD) for 4 weeks, 2.5 h after high-fat meal) was 2.65 µmol/L, the “Amount of change in free carnitine” value ([2]; CR 0.4 mg/day (QD) for 4 weeks, 4.5 h after high-fat meal) was 2.25 µmol/L and the “Amount of change in free carnitine” value ([2]; CR 0.8 mg/day (QD) for 4 weeks, 1 h after high-fat meal) was 3.11 µmol/L. The “Amount of change in free carnitine” value ([2]; CR 0.8 mg/day (QD) for 4 weeks, 2.5 h after high-fat meal) was 3.26 µmol/L, the “Amount of change in free carnitine” value ([2]; CR 0.8 mg/day (QD) for 4 weeks, 4.5 h after high-fat meal) was 2.92 µmol/L and the “Amount of change in free carnitine” value ([2]; IR 0.2 mg/day (BID) for 4 weeks, 1 h after high-fat meal) was 2.72 µmol/L. For the same molecule, the “Amount of change in free carnitine” value ([2]; IR 0.2 mg/day (BID) for 4 weeks, 2.5 h after high-fat meal) was 2.19 µmol/L, the “Amount of change in free carnitine” value ([2]; IR 0.2 mg/day (BID) for 4 weeks, 4.5 h after high-fat meal) was 1.79 µmol/L and the “Time of administration at which the free carnitine increasing action reached the maximum value” [3] was 12 weeks. The “Ratio of change in concentration of free carnitine in blood in a fasting state with respect to value before administration (0 weeks), average” value ([3]; 4 weeks) was 20.0, the “Ratio of change in concentration of free carnitine in blood in a fasting state with respect to value before administration (0 weeks), average” value ([3]; 12 weeks) was 24.7 and the “Ratio of change in concentration of free carnitine in blood in a fasting state with respect to value before administration (0 weeks), average” value ([3]; 24 weeks) was 24.5. For the same molecule, the “Effect on concentration of free carnitine in blood in a fasting state compared to placebo (in words)” value ([3]; 48 weeks) was “increased the concentration of free carnitine in blood in a fasting state as compared to placebo administration” and the “Ratio of change in concentration of free carnitine in blood in a fasting state with respect to value before administration (0 weeks), average” value ([3]; 48 weeks) was 20.9.
